According to patent US9504702B2, “Methods of inhibition of protein fucosylation in vivo using fucose analogs” (Seattle Genetics, Inc., priority 2010, dated 2016):
Like-named read-outs stand apart in the source and are kept apart here.

How the values were obtained:
[1] = tested on: LP-1, a human multiple myeloma cell line (IgG fucosylation); assay: Fucosylation of LP-1-generated IgG, AOL dot blot; assay type: cell-based
Procedure: To further evaluate the activities of different fucose analogs, 48 different fucose analogs and other four glycosylation inhibitors were tested for their ability to affect the fucosylation the LP-1-generated IgG. LP-1 cells (250,000 cells/mL, 3 mL per compound in 6-well plates) were incubated with 100 μM of each fucose analog for 5 days at 37° C. with a humidified atmosphere of 5% CO2 in IgG-depleted tissue culture media (90% RPMI with 10% IgG-depleted heat inactivated FBS). The IgG was isolated as described above using only 0.5 mL of MabSelect™ protein A resin slurry and one spin cup per sample with elution in 400 μL of IgG elution buffer into 25 μL of 9 M Tris buffer, pH 9. The eluates were concentrated to 10-20 μL per sample and 2 μL of each of the concentrated eluates were dotted onto a nitrocellulose membrane and stained with Ponceau S to estimate and adjust the sample loading for AOL staining. From this estimation of total protein in each sample, approximately 0.5 μg of each sample was dotted onto the membrane, air-dried, and stained with Ponceau S. An image of this stained membrane was captured using an Alpha Innotech FlourChem® Q system. The membrane was then blocked with 5% Bovine Serum Albumin (BSA) in Tris Buffered Saline (TBS) for 1 hr, washed with TBST (TBS with […]) 3 times and then incubated with 5 μg/ml biotinylated-AOL for 1 hr. The membrane was washed again with TBST 3 times, followed by Streptavidin-HRP incubation for 30 min and final washes with TBST 3 times.

[2] = tested on: LP-1 cells (IgG heavy chain fucose signal); assay: Fucosylation of LP-1 IgG, SDS-PAGE/Western blot with biotinylated AOL; assay type: cell-based, human; details: for AOL signal on IgG heavy chain, SDS-PAGE/Western blot: 50 μM, LP-1 cells, versus untreated cells; for inhibition of fucosylation of antibody (AOL signal): IgG isolated from LP-1 culture
Source text: The ability of different fucose analogs to inhibit the fucosylation of IgG antibodies produced by human myeloma cells as well as the fucosylation of surface proteins of human cancer cell lines was investigated. In a first study, the ability of fucose analogs to inhibit fucosylation of IgG produced by the cell line LP-1, a human multiple myeloma cell line, was investigated. The antibodies produced by, and found in the culture medium of, untreated LP-1 cells were confirmed to be of the IgG type by western blot using anti-human IgG detection (data not shown). This was accomplished by growing 20 mL of LP-1 cells in a T-75 culture flask (250,000 cells/mL) for 5 days at 37° C. in a humidified atmosphere of 5% CO2 in IgG-depleted tissue culture media (90% RPMI with 10% IgG-depleted heat inactivated FBS). Harvest of the cells was by centrifugation (200×g, 4° C., 5 min), and the culture medium was collected. The medium was filtered through a 0.22 μm filter and then incubated with 1 mL of a 50% MabSelect™ protein A resin slurry in PBS at 4° C. with rotation overnight to capture the IgG. The resin slurry was allowed to settle and most of the medium was removed. The resin slurry was transferred with ˜0.5 mL media to two cellulose acetate filter spin cups and was centrifuged at 5000×g for 1 min. The resin bed was then washed 3 times with 0.5 mL PBS. The IgG was eluted with 700 μL of Pierce IgG elution buffer (into with 52 μL of 9 M Tris buffer, pH 9.5 to adjust the pH after elution). The resulting elution was transferred to a 10,000 MW cutoff centrifugal concentrator and the sample was concentrated to approximately 20 μL. 1 μL of the concentrated sample was loaded on an SDS polyacrylamide gel for separation followed by blotting onto nitrocellulose membrane. Staining of the blot for total protein was with Ponceau S and for identification of isotype with anti-human IgG antibody.
Antibody fucosylation can also be determined using a biotin-labeled Aspergillus oryzae L-fucose-specific lectin (AOL), which binds specifically to the α-1,6-linked fucose of the antibody. This method for fucose detection works for both blotted protein that has either been separated by SDS-PAGE or for protein that has been applied to nitrocellulose without separation. The […] signal generated using the AOL-biotin conjugate with streptavidin-HRP binding and ECL detection can be quantitated using an Alpha Innotech FlourChem® Q system.
The three analogs chosen were used at a concentration of 50 μM. These analyses compared the activity of 2-fluorofucose (SGD-2083), 2-fluorofucose peracetate (SGD-2084), and alkynyl fucose peracetate (SGD-1890) with antibody from untreated cells.

[3] = tested on: antibody core fucosylation (CHO DG44 cell line producing humanized IgG1 anti-CD70 antibody h1F6); assay: Inhibition of antibody core fucosylation in CHO DG44 cell culture producing h1F6; assay type: cell-based; details: day 5, CHO DG44 h1F6; for Inhibition at 50 μM: 50 μM fucose analog, read-out: Inhibition at 50 μM; for inhibition at 1000 µM: 1 mM fucose analog
Procedure: Fucose analogs have been evaluated for their effect on antibody core fucosylation at concentrations of 50 μM and 1 mM generally as described in Published US Patent Application 2009-0317869. Briefly, the protocol was as follows: A CHO DG44 cell line producing a humanized IgG1 anti-CD70 monoclonal antibody, h1F6 (see International Patent Publication WO 06/113909) was cultured at 7.5×10^5 cells per mL in 2 mLs of CHO culture media at 37°, 5% CO2 and shaking at 100 RPM in a 6 well tissue culture plate. Media was supplemented with insulin like growth factor (IGF), penicillin, streptomycin and either 1 mM or 50 μM of the fucose analog. On day 5 post inoculation, the culture was centrifuged at 13000 RPM for 5 minutes to pellet the cells; antibodies were then purified from supernatant.
Antibody purification was performed by applying the conditioned media to protein A resin pre-equilibrated with 1× phosphate buffered saline (PBS), pH 7.4. After washing resin with 20 resin bed volumes of 1×PBS, antibodies were eluted with 5 resin bed volumes of Immunopure IgG elution buffer (Pierce Biotechnology, Rockford, Ill.). A 10% volume of 1M Tris pH 8.0 was added to neutralize the eluted fraction.

Compound | inhibition of IgG fucosylation in human cells (decrease in AOL signal, dot blot) ([1]; 100 μM, LP-1 cells) | dot blot results (% fucose signal of control) ([1]; LP-1-generated IgG, 100 μM) | AOL signal on IgG heavy chain, SDS-PAGE/Western blot [2] | inhibition of fucosylation of antibody (AOL signal) [2] | Inhibition at 50 μM ([3]; 120 h) | inhibition at 1000 µM ([3]; 120 h) | activity at 100 µM ([1]; Homo sapiens, LP-1, 120 h, 5 days, LP-1 cells, AOL dot blot, multiple samples separated by semicolon, read-out: % of control fucosylated IgG value) | Inhibition at 50 μM ([3]; CHO-DG44, 120 h) | inhibition at 1000 µM ([3]; CHO-DG44, 120 h)
C#CC(OC(C)=O)[C@@H](OC(C)=O)[C@@H](OC(C)=O)[C@@H](C=O)OC(C)=O (some centres unmarked) [SGD-1890, 5-ethynylarabinose tetraacetate] | potentially strong inhibitors | ~1 % fucose signal of control | did not show reactivity with the biotinylated AOL | did | > 80% | > 80% | – | – | –
C[C@H](O)[C@@H](O)[C@@H](O)[C@H](F)C=O [SGD-2083, 2-fluoro-2-deoxy fucose] | – | – | no apparent change in the AOL signal | did not inhibit fucosylation of antibody | – | – | 66% | > 80% | > 80%
